In brackets after ≈: the same amount, converted by molar mass. Where a name gives a salt, the structure may show the parent alone. Read-outs that look alike come from different tables or passages of the source.
Tests used:
Assay type in all cases: cell-based
[1] = tested on: Acinetobacter calcoaceticus Ac 54; assay: MIC, Experiment 1; settings: AC54, A. calcoaceticus Ac 54, Gram -, read-out: Min. inhib. concentr. (MIC)
Procedure, shortened: (§1)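 Stock solutions (5000 μg/ml, in DMSO or water) were diluted to 1000 μg/ml working standards. MICs were measured per the Japan Society of Chemotherapy procedure, with media matched to each organism: blood-supplemented heart infusion agar for S. pneumoniae and sensitivity test agar for the remaining strains.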

Bacillus cereus IAM 1029 = assay: MIC, Experiment 1; settings: IAM1029, B. cereus IAM 1029, Gram +, read-out: Min. inhib. concentr. (MIC)
Procedure, shortened: (§2)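 Following the Japan Society of Chemotherapy standard, compounds were diluted in water to 1000 μg/ml standard solutions and tested on agar plates. Sensitivity test broth and agar served the staphylococcal and Bacillus strains. Pneumococci were grown in brain heart infusion broth before testing on heart infusion agar with 5% horse blood.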

Enterobacter cloacae 963 = assay: MIC, Experiment 1; settings: E. cloacae 963, Gram -, read-out: Min. inhib. concentr. (MIC)
Procedure, shortened: as §1

[2] = tested on: Escherichia coli NIHJ JC-2; assay: MIC, Experiment 1; settings: NIHJJC2, E. coli NIHJ JC-2, Gram -, read-out: Min. inhib. concentr. (MIC)
Procedure, shortened: as §1

[3] = tested on: Klebsiella pneumoniae PCI-602; assay: MIC, Experiment 1; settings: PCI602, K. pneumoniae PCI-602, Gram -, read-out: Min. inhib. concentr. (MIC)
Procedure, shortened: as §1

[4] = tested on: Staphylococcus aureus ATCC 9144; assay: MIC, Experiment 1; settings: ATCC9144, S. aureus ATCC 9144, Gram +, read-out: Min. inhib. concentr. (MIC)
Procedure, shortened: as §2

[5] = tested on: Staphylococcus aureus FDA 209P JC-1; assay: MIC, Experiment 1; settings: FDA209P, S. aureus FDA 209P JC-1, Gram +, read-out: Min. inhib. concentr. (MIC)
Procedure, shortened: as §2

[6] = tested on: Staphylococcus aureus FDA 243; assay: MIC, Experiment 1; settings: FDA243, S. aureus FDA 243, Gram +, read-out: Min. inhib. concentr. (MIC)
Procedure, shortened: as §2

[7] = tested on: Staphylococcus aureus IID 803; assay: MIC, Experiment 1; settings: IID803, S. aureus IID 803, Gram +, read-out: Min. inhib. concentr. (MIC)
Procedure, shortened: as §2

[8] = tested on: Staphylococcus aureus Terajima (IID 670); assay: MIC, Experiment 1; settings: IID670, S. aureus Terajima (IID 670), Gram +, read-out: Min. inhib. concentr. (MIC)
Procedure, shortened: as §2

[9] = tested on: Streptococcus pneumoniae IID 552; assay: MIC, Experiment 1; settings: IID552, S. pneumoniae IID 552, Gram +, agar with 5% defibrinated horse blood, read-out: Min. inhib. concentr. (MIC)
Procedure, shortened: as §2

[10] = tested on: Streptococcus pyogenes Cook; assay: MIC, Experiment 1; settings: S. pyogenes Cook, Gram +, agar with 5% defibrinated horse blood, read-out: Min. inhib. concentr. (MIC)
Procedure, shortened: (§3)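 Stocks: 5000 μg/ml in DMSO or sterile distilled water; standard: 1000 μg/ml after water dilution. Method: Japan Society of Chemotherapy.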

[11] = tested on: Streptococcus pyogenes Su; assay: MIC, Experiment 1; settings: S. pyogenes Su, Gram +, agar with 5% defibrinated horse blood, read-out: Min. inhib. concentr. (MIC)
Procedure, shortened: as §3

[12] = tested on: Streptococcus pyogenes Sv; assay: MIC, Experiment 1; settings: S. pyogenes Sv, Gram +, agar with 5% defibrinated horse blood, read-out: Min. inhib. concentr. (MIC)
Procedure, shortened: as §3

[13] = tested on: Staphylococcus epidermidis IAM 1296; assay: MIC, Experiment 1; settings: IAM1296, S. epidermidis IAM 1296, Gram +, read-out: Min. inhib. concentr. (MIC)
Procedure, shortened: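 Standardized Japanese chemotherapy society agar MIC method; test stocks at 5000 μg/ml in DMSO or water.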

[14] = tested on: clinically isolated Enterococcus faecalis; assay: In vitro antibacterial activity against clinical isolates, Experiment 2
Procedure, shortened: (§4)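 Stock: compound diluted in sterile distilled water to 1000 μg/ml. Preculture: sensitivity test broth. MIC read-out: sensitivity test agar medium. Strains: clinical isolates, Nov. 1988–Jun. 1989.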

[15] = tested on: clinically isolated Enterococcus faecium; assay: as above
Procedure, shortened: as §4

[16] = tested on: clinically isolated Staphylococcus aureus; assay: as above; settings: for MIC50: 50% of strains, read-out: MIC50
Procedure, shortened: as §4

[17] = tested on: clinically isolated Staphylococcus epidermidis; assay: as above; settings: Staphylococcus epidermidis, 25 clinical strains S. epidermidis; for MIC50: 50% of strains, read-out: MIC50; for MIC90: 90% of strains, read-out: MIC90
Procedure, shortened: as §4

[18] = 25 clinical strains E. faecalis
[19] = 25 clinical strains E. faecalis, 50% of strains, read-out: MIC50
[20] = 25 clinical strains E. faecalis, 90% of strains, read-out: MIC90
[21] = 25 clinical strains E. faecium, 90% of strains, read-out: MIC90
[22] = 25 clinical strains S. aureus incl. 16 methicillin resistant

| Structure (SMILES) | MIC [1] [µg/mL] | MIC (Bacillus cereus IAM 1029) [µg/mL] | MIC (Enterobacter cloacae 963) [µg/mL] | MIC [2] [µg/mL] | MIC [3] [µg/mL] | MIC [4] [µg/mL] | MIC [5] [µg/mL] | MIC [6] [µg/mL] | MIC [7] [µg/mL] | MIC [8] [µg/mL] | MIC [9] [µg/mL] | MIC [10] [µg/mL] | MIC [11] [µg/mL] | MIC [12] [µg/mL] | MIC [13] [µg/mL] | MIC [14, 18] [µg/mL] | MIC50 [15] [µg/mL] | MIC ([15]; 25 clinical strains E. faecium) [µg/mL] | MIC [16, 22] [µg/mL] | MIC50 [16, 22] [µg/mL] | other results |
| --- | --- | --- | --- | --- | --- | --- | --- | --- | --- | --- | --- | --- | --- | --- | --- | --- | --- | --- | --- | --- | --- |
| CN1Cc2csc3c(C(=O)O)c(=O)c4cc(F)c(N5CCC(O)CC5)c1c4n23 [Compound (L), 9,1-(Methylimino)methano-7-fluoro-8-(4-hydroxypiperidino)-5-oxo-5H-thiazolo[3,2-a]quinoline-4-carboxylic acid] | ≤ 0.006 | 0.013 (≈ 0.0322 µM) | 0.2 (≈ 0.496 µM) | 0.1 (≈ 0.248 µM) | ≤ 0.006 | ≤ 0.006 | 0.013 (≈ 0.0322 µM) | ≤ 0.006 | ≤ 0.006 | 0.013 (≈ 0.0322 µM) | 0.013 (≈ 0.0322 µM) | 0.025 (≈ 0.062 µM) | 0.025 (≈ 0.062 µM) | 0.025 (≈ 0.062 µM) | 0.013 (≈ 0.0322 µM) | 0.05 to 1.56 (≈ 0.124 to 3.87 µM) | 0.39 (≈ 0.967 µM) | 0.05 to 6.25 (≈ 0.124 to 15.5 µM) | 0.006 to 0.39 (≈ 0.0149 to 0.967 µM) | ≤ 0.006 | MIC50 [14, 19]: 0.05 µg/mL (≈ 0.124 µM); MIC90 [14, 20]: 1.56 µg/mL (≈ 3.87 µM); MIC90 [15, 21]: 3.13 µg/mL (≈ 7.76 µM); MIC90 ([16]; 25 clinical strains S. aureus incl. 16 methicillin resistant, 90% of strains, read-out: MIC90): 0.39 µg/mL (≈ 0.967 µM); MIC [17]: 0.006 to 0.39 µg/mL (≈ 0.0149 to 0.967 µM); MIC50 [17]: 0.013 µg/mL (≈ 0.0322 µM); MIC90 [17]: 0.39 µg/mL (≈ 0.967 µM) |
| COCC1CN(c2c(F)cc3c(=O)c(C(=O)O)c4scc5n4c3c2N(C)C5)CCO1 (stereo not drawn) [Compound (E), 9,1-(Methylimino)methano-7-fluoro-8-(2-methoxymethylmorpholino)-5-oxo-5H-thiazolo[3,2-a]quinoline-4-carboxylic acid] | 0.013 (≈ 0.03 µM) | 0.025 (≈ 0.0577 µM) | 0.78 (≈ 1.8 µM) | 0.2 (≈ 0.461 µM) | 0.025 (≈ 0.0577 µM) | 0.013 (≈ 0.03 µM) | 0.025 (≈ 0.0577 µM) | ≤ 0.006 | 0.013 (≈ 0.03 µM) | 0.025 (≈ 0.0577 µM) | 0.05 (≈ 0.115 µM) | 0.05 (≈ 0.115 µM) | 0.05 (≈ 0.115 µM) | 0.05 (≈ 0.115 µM) | 0.05 (≈ 0.115 µM) | 0.1 to 6.25 (≈ 0.231 to 14.4 µM) | 3.13 (≈ 7.22 µM) | 0.1 to 12.5 (≈ 0.231 to 28.8 µM) | 0.006 to 0.78 (≈ 0.0138 to 1.8 µM) | 0.013 (≈ 0.03 µM) | MIC90 [14]: 6.25 µg/mL (≈ 14.4 µM); MIC50 [14, 19]: 0.2 µg/mL (≈ 0.461 µM); MIC90 [15]: 6.25 µg/mL (≈ 14.4 µM); MIC90 [16]: 0.78 µg/mL (≈ 1.8 µM); MIC [17]: 0.006 to 0.39 µg/mL (≈ 0.0138 to 0.9 µM); MIC50 [17]: 0.05 µg/mL (≈ 0.115 µM); MIC90 [17]: 0.39 µg/mL (≈ 0.9 µM) |
| CN1Cc2csc3c(C(=O)O)c(=O)c4cc(F)c(N5CCN(C)C(CO)C5)c1c4n23 (stereo not drawn) [Compound (I), 9,1-(Methylimino)methano-7-fluoro-8-(3-hydroxymethyl-4-methyl-1-piperazinyl)-5-oxo-5H-thiazolo-[3,2-a]quinoline-4-carboxylic acid hydrochloride] | 0.1 | 0.2 | 0.2 | 0.2 | 0.025 | 0.1 | 0.2 | 0.1 | 0.2 | 0.2 | 0.1 | 0.05 | 0.05 | 0.1 | 0.2 | 0.2 to 12.5 | 3.13 | 0.2 to 25 | 0.1 to 12.5 | 0.2 | MIC50 [14]: 0.39 µg/mL; MIC90 [14, 20]: 12.5 µg/mL; MIC90 [15, 21]: 12.5 µg/mL; MIC90 [16]: 6.25 µg/mL; MIC [17]: 0.05 to 3.13 µg/mL; MIC50 [17]: 0.1 µg/mL; MIC90 [17]: 3.13 µg/mL |
| COC[C@H]1CN(c2c(F)cc3c(=O)c(C(=O)O)c4scc5n4c3c2N(C)C5)CCO1 [Compound (P), 9,1-(Methylimino)methano-7-fluoro-8-[(2R)-2-methoxymethylmorpholino)-5-oxo-5H-thiazolo[3,2-a]quinoline-4-carboxylic acid] | 0.013 (≈ 0.03 µM) | 0.025 (≈ 0.0577 µM) | 1.56 (≈ 3.6 µM) | 0.2 (≈ 0.461 µM) | 0.025 (≈ 0.0577 µM) | 0.013 (≈ 0.03 µM) | 0.05 (≈ 0.115 µM) | ≤ 0.006 | 0.025 (≈ 0.0577 µM) | 0.05 (≈ 0.115 µM) | 0.05 (≈ 0.115 µM) | 0.05 (≈ 0.115 µM) | 0.05 (≈ 0.115 µM) | 0.1 (≈ 0.231 µM) | 0.05 (≈ 0.115 µM) | 0.1 to 6.25 (≈ 0.231 to 14.4 µM) | 3.13 (≈ 7.22 µM) | 0.2 to 12.5 (≈ 0.461 to 28.8 µM) | 0.006 to 0.78 (≈ 0.0138 to 1.8 µM) | 0.013 (≈ 0.03 µM) | MIC90 [14]: 6.25 µg/mL (≈ 14.4 µM); MIC50 [14, 19]: 0.2 µg/mL (≈ 0.461 µM); MIC90 [15, 21]: 12.5 µg/mL (≈ 28.8 µM); MIC90 [16]: 0.78 µg/mL (≈ 1.8 µM); MIC [17]: 0.006 to 0.78 µg/mL (≈ 0.0138 to 1.8 µM); MIC50 [17]: 0.05 µg/mL (≈ 0.115 µM); MIC90 [17]: 0.39 µg/mL (≈ 0.9 µM) |

Source: patent US5191079A, “Quinolinecarboxylic acid derivatives” (priority 1990, dated 1993)
